The source of these data is publication PMC4987127 (Leukemia, 2015).

The target of one assay is BTK kinase (Homo sapiens, UniProt Q06187). The experiment in a line: BTK signaling in AML cell lines: BTK phosphorylation. The note with it: FLT3 wt and FLT3-ITD cell lines. The format is cell-based.
In another assay the test system is PLCγ. The experiment in a line: BTK signaling in AML cell lines: downstream mediators. The format is cell-based. To be noted: for effect on PLCγ phosphorylation: direct downstream target of BTK.
The next assay deals with AKT and ERK. The experiment in a line: Phosphorylation of AKT and ERK in AML cell lines. Format: cell-based.
Assay [1] relates to FLT3-mediated signaling pathways. Briefly: FLT3-mediated signaling pathways in FLT3-ITD positive cell lines. Format: cell-based.
For assay [2], the system named is FLT3-ITD mutant-expressing primary patient cells. Briefly: Anti-proliferation on primary patient cells. Format: cell-based.
The test system of assay [3] is BTK-KD MOLM14 and MOLM13 cells. To be noted: BTK knockdown MOLM14 and MOLM13.
A further assay relates to ITD-D835Y. Briefly: Isogenic BaF3 cell proliferation. The format is cell-based.
The subject of another assay is THP-1. To be noted: THP-1 ref 11; cited from earlier work.
The subject of another assay is TEL-FLT3-wt-BaF3. The experiment in a line: Isogenic BaF3 cell proliferation. To be noted: Mus musculus. The format is cell-based.
The subject of the next assay is FLT3-D835H-BaF3. The experiment in a line: Isogenic BaF3 cell proliferation. Format: cell-based. The note with it: Mus musculus.
In another assay the test system is FLT3-D835Y-BaF3. Briefly: Isogenic BaF3 cell proliferation. The note with it: Mus musculus. Format: cell-based.
A further assay concerns c-Kit Ba/F3 cells. Briefly: Oncogene-expressing Ba/F3 cell growth. Format: cell-based.
For the next assay, the system named is U937 cells. The note with it: U937 cells ref 11; cited from earlier work.
The next assay has as its system HL60. The note with it: HL60 ref 11; cited from earlier work.
A further assay has as its system FLT3-ITD cell lines. The experiment in a line: Apoptotic cell death. The note with it: concentration- and time-dependent. Format: cell-based.
The subject of assay [4] is FLT3-ITD mutant AML cell lines (MOLM13, MOLM14 and MV4-11). Briefly: Proliferation screen of a panel of AML cell lines. To be noted: panel of AML cell lines spanning M0–M7; only FLT3-ITD mutant lines MOLM13, MOLM14, MV4-11. The format is cell-based.
Another assay deals with FLT3 kinase (Homo sapiens, UniProt P36888). The experiment in a line: Binding mode examination. To be noted: molecular modeling, confirmed by washing-out experiment.
FLT3 kinase, sequence (P36888 27-993): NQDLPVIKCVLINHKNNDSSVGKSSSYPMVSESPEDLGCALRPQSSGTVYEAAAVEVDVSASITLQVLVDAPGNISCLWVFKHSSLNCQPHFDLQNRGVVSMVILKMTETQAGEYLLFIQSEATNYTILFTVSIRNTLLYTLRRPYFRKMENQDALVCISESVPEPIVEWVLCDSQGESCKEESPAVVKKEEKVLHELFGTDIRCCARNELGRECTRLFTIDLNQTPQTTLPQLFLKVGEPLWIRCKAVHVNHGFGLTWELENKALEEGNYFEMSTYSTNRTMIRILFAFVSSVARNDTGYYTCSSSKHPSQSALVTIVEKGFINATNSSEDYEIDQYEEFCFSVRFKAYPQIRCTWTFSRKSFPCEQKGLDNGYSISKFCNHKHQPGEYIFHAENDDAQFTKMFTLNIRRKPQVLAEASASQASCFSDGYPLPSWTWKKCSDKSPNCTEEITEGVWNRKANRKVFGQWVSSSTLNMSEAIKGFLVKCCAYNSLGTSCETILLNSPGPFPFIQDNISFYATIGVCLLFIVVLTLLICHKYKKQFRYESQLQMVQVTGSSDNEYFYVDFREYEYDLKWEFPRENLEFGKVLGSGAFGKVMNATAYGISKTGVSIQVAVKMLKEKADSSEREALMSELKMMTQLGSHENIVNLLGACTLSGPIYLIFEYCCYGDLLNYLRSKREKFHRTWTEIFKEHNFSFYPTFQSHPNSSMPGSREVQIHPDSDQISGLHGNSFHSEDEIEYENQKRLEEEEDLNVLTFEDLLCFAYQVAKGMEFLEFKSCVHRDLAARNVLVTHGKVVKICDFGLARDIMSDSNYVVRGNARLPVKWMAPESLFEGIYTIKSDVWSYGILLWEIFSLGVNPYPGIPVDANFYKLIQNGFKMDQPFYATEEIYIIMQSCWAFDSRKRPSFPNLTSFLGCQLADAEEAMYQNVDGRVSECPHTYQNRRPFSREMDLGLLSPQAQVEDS
Assay [5] has as its system OCI-AML3 and NOMO-1 cells. The experiment in a line: FLT3-mediated signaling in FLT3 low expression cell lines. The format is cell-based.
A further assay concerns TF-1. The note with it: TF-1 ref 11; cited from earlier work.
A further assay concerns BCR-ABL Ba/F3 cells. The experiment in a line: Oncogene-expressing Ba/F3 cell growth. Format: cell-based.
Assay [6] deals with FLT3-ITD-dependent isogenic BaF3 cell line. Briefly: Isogenic BaF3 cell proliferation. The format is cell-based.
For a further assay, the system named is FLT3-K663Q. The experiment in a line: Isogenic BaF3 cell proliferation. The format is cell-based.
The subject of another assay is PDGFRα Ba/F3 cells. Briefly: Oncogene-expressing Ba/F3 cell growth. Format: cell-based.
The subject of the next assay is ITD-F691L. Briefly: Isogenic BaF3 cell proliferation. Format: cell-based.
Another assay relates to NRAS Ba/F3 cells. Briefly: Oncogene-expressing Ba/F3 cell growth. The format is cell-based.

BTK kinase, sequence (Q06187 whole entry): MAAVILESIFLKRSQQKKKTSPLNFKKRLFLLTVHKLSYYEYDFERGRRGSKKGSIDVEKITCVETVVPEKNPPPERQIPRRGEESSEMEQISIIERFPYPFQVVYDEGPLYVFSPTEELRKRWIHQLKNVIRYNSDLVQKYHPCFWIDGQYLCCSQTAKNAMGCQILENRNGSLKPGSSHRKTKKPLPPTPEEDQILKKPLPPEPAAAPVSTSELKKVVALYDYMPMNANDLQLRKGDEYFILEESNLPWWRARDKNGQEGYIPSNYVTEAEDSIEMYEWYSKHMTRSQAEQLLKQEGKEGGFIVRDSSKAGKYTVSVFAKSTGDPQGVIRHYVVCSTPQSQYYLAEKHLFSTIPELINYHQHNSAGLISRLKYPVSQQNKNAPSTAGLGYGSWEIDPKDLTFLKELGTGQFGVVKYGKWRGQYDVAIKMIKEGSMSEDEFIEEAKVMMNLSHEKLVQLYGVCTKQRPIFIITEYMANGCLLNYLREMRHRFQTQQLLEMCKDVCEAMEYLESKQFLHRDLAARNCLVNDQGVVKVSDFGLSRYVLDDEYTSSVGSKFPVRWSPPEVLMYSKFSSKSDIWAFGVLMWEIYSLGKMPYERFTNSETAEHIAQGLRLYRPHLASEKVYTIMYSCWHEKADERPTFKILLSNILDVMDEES

For `CC(C)(C)c1cc(NC(=O)Nc2ccc(-c3cn4c(n3)sc3cc(OCCN5CCOCC5)ccc34)cc2)no1` [AC220], the “effect on BTK kinase phosphorylation/activity” value at BTK kinase is listed as “did not affect”. For the same molecule, the “effect on PLCγ phosphorylation” value with PLCγ is listed as “did not affect”. For the same molecule, in the assay with AKT and ERK, the “effect on phosphorylation of AKT and ERK” value is “inhibited”.
For `C=CC(=O)Nc1cccc(Nc2nc(Nc3ccc(OCCOC)cc3)ncc2F)c1` [AVL-292], on BTK kinase, the “effect on BTK kinase phosphorylation/activity” value is listed as “effective”. Moreover, in the assay on PLCγ, the “effect on PLCγ phosphorylation” value is recorded as “effective”. For the same molecule, in assay [1], the “effect on FLT3-mediated signaling” value is “did not exhibit any effect”. Moreover, in the assay on AKT and ERK, the “effect on phosphorylation of AKT and ERK” value is “no effect”.
Turning to `Cc1c(NC(=O)c2ccc(C(C)(C)C)cc2)cccc1-c1cn(C)c(=O)c(Nc2ccc(C(=O)N3CCOCC3)cc2)n1` [CGI-1746], the “effect on PLCγ phosphorylation” value with PLCγ was “effective”. For the same molecule, the “effect on FLT3-mediated signaling” value in [1] is “did not exhibit any effect”. In addition, in the assay on AKT and ERK, the “effect on phosphorylation of AKT and ERK” value is listed as “no effect”.
For `C=CC(=O)N1CCC[C@@H](n2nc(-c3ccc(Oc4ccccc4)cc3)c3c(N)ncnc32)C1` [ibrutinib, Ibrutinib], the anti-proliferation activity result in [2] is “dose-dependent anti-proliferation activity”. In assay [3], the “growth of BTK-KD cells” value is reported as “significantly blocked the growth”. Besides, the “effect on downstream mediators of BTK kinase” value in the assay on PLCγ (only in FLT3 wt-expressing cell lines (NOMO-1 and OCI-AML3)) is listed as “affected”. For the same molecule, the activity against mutation entry with ITD-D835Y, in the assay on FLT3-K663Q and with ITD-F691L was “less active” each time. Also, the “activity against AML cell line” value in the assay on THP-1, in the assay with HL60 and with TF-1 was “no apparent activity” in each case. The GI50 (usually the concentration that inhibits growth by half) with TEL-FLT3-wt-BaF3 is 460 nM; in the assay on FLT3-D835H-BaF3 it was 63 nM; in the assay on FLT3-D835Y-BaF3, 500 nM; in [6] (Mus musculus, BaF3) it was 120 nM. The effect on growth result in the assay with c-Kit Ba/F3 cells, with BCR-ABL Ba/F3 cells, in the assay on PDGFRα Ba/F3 cells and in the assay with NRAS Ba/F3 cells was “did not affect the growth” each time. Further, in the assay on U937 cells, the inhibition of proliferation result is “moderate inhibition of proliferation”. Moreover, the apoptotic cell death entry in the assay with FLT3-ITD cell lines is on record as “induced apoptotic cell death”. Besides, in assay [4], the “sensitivity to ibrutinib (proliferation)” value is listed as “sensitive”. Moreover, the “mode of inhibition of FLT3 kinase” value on FLT3 kinase is “reversible binding”. Besides, the “effect on FLT3-related signaling” value in [5] is recorded as “not affected”. The “rescue of inhibitory effect by IL-3 treatment” value in assay [6] (FLT3-ITD BaF3 with IL-3) is given as “completely rescued”.
